Laboratory results reported in US9874563B2, “Detecting and quantifying cryptic HIV replication” (UNIVERSITY OF DELAWARE, priority 2012, dated 2018).
Values joined by “and” are separate entries in the source; they are usually repeats but may differ in a detail not shown here. Equal values may be shown once.

Key:
[1] = test system: HIV; assay: Model fit of 2-LTR dynamics following raltegravir intensification (nonlinear mixed-effects, Bayesian MCMC); parameters: species or system human
Description: Previous work has been done on identifying HIV model parameters from experiments involving the use of integrase inhibitors. These models, however, considered only standard viral load measurements, not measurements of 2-LTR circle frequency. We introduce a simple model of the dynamics of the concentrations of actively infected cells y(t) and cells containing 2-LTR episomes c(t) in the site of episome formation. We model the behavior both in the absence of raltegravir uII=0 and in the presence of raltegravir uII=1.
The reproductive ratio of the virus prior to raltegravir intensification is R, and the reproductive ratio after raltegravir intensification is (1−ηII)R, where ηII is the effectiveness of raltegravir at interrupting infection events that would otherwise have occurred without intensification. The reproductive ratios are defined as the average number of infected cells created per infected cell in a single generation. If the virus was replicating efficiently prior to intensification (R0>1), then the measured R would be approximately equal to 1 at equilibrium, as the efficient replication would necessarily be target cell limited. If the infection is controlled prior to intensification (R0<1), then the measured reproductive ratio R will be approximately equal to R0.
2-LTR circles may also be formed at an integrase inhibitor-enhanced rate in the presence of raltegravir. The rate at which infection events are interrupted by raltegravir after intensification is ηIIRay which, when multiplied by the probability 0<kII<1 that the interruption of an infection even leads to the formation of a 2-LTR episome, gives us the rate of integrase inhibitor-enhances 2-LTR formation kIIηIIRay. φ≧0 is the ratio between the intrinsic rate and the raltegravir-enhanced rate of 2-LTR formation.
These dynamics can be written in the form of Equation 1: y=−(1−(1−ηIIuII)R)ay+ye ċ=φkII(1−ηIIuII)Ray+kIIηIIuIIRay−δc (1)
To reduce the parametric covariance, we introduced a re-parametrized parameter A=kIIye/δ to replace kIIye. […]
The posterior distribution of the parameter likelihood given the measured 2-LTR values was computed using a Bayesian Markov-Chain Monte-Carlo method with Gibbs Sampling, as in References 56, 75, 78 and 79 with noninformative prior distributions for the parameters as follows:
Markov-Chain Monte-Carlo methods were used to fit Equation 5 to the experimental data for 13 patients, with shared parameters {θ, δ} and patient-specific parameters {R; ηII, kIIye}, using the measurement uncertainty model described in the Materials and Methods section. […] The maximum-likelihood predicted 2-LTR concentrations for each patient, together with the 95% prediction interval, is shown compared to the measured data in FIG. 3.

[2] = test system: HIV 2-LTR circles; conditions: cited from earlier work
[3] = test system: HIV; conditions: duration of the experiment; 13 patients of the experimental group; cited from earlier work

Cc1nnc(C(=O)NC(C)(C)c2nc(C(=O)NCc3ccc(F)cc3)c(O)c(=O)n2C)o1 [raltegravir]
effect on level of cryptic replication ([1]; addition of raltegravir to HAART, interpretation of the 2-LTR data): reduces the level of cryptic replication to undetectable levels
increase in likelihood of 2-LTR formation when raltegravir interrupts integration ([1]; from 95% credible interval of φ): 250-1000 times
ηII (ratio-reduction in R following raltegravir intensification; drug efficacy of raltegravir), MLE ([1]; maximum likelihood (posterior mode), patient-specific fitted parameter, one table row per patient): 0.01 (3×) and 0.19 and 0.02 and 0.49 and 0.77 and 0.05 and 0.03 and 0.79 and 0.81 and 0.99 and 0.08
ηII (ratio-reduction in R following raltegravir intensification; drug efficacy of raltegravir), Median ([1]; posterior median, patient-specific fitted parameter, one table row per patient): 0.78 and 0.21 and 0.02 and 0.53 (3×) and 0.74 and 0.38 and 0.04 and 0.39 and 0.50 and 0.55 and 0.12
patients with 2-LTR containing cells observed ([2]; HAART intensified by raltegravir for 48 weeks, experimental group of 45): 13/45 and 13 of the 45
2-LTR quantification, Week Post-Intensification 0 ([2]; week 0 (baseline at start of raltegravir intensification), individual HAART-suppressed patients, one table row per patient, censoring limit 1.20): <1.20 2-LTR per 10^6 PBMC (7×) and 1.76 2-LTR per 10^6 PBMC and 38.62 2-LTR per 10^6 PBMC and 35.30 2-LTR per 10^6 PBMC and 9.98 2-LTR per 10^6 PBMC and 2.99 2-LTR per 10^6 PBMC
2-LTR quantification, Week Post-Intensification 2 ([2]; week 2 of raltegravir intensification, individual patients, one table row per patient, censoring limit 1.20): 21.47 2-LTR per 10^6 PBMC and 48.16 2-LTR per 10^6 PBMC and 72.77 2-LTR per 10^6 PBMC and 30.55 2-LTR per 10^6 PBMC and 5.84 2-LTR per 10^6 PBMC and 12.98 2-LTR per 10^6 PBMC and 3.05 2-LTR per 10^6 PBMC and <1.20 2-LTR per 10^6 PBMC (4×) and 23.69 2-LTR per 10^6 PBMC and 1.98 2-LTR per 10^6 PBMC
2-LTR quantification, Week Post-Intensification 4 ([2]; week 4 of raltegravir intensification, individual patients, one table row per patient, censoring limit 1.20): <1.20 2-LTR per 10^6 PBMC (3×) and 9.07 2-LTR per 10^6 PBMC and 5.37 2-LTR per 10^6 PBMC and 13.42 2-LTR per 10^6 PBMC and 3.19 2-LTR per 10^6 PBMC and 2.68 2-LTR per 10^6 PBMC and 24.75 2-LTR per 10^6 PBMC and 21.07 2-LTR per 10^6 PBMC and 3.03 2-LTR per 10^6 PBMC
2-LTR quantification, Week Post-Intensification 12 ([2]; week 12 of raltegravir intensification, individual patients, one table row per patient, censoring limit 1.20): 10.38 2-LTR per 10^6 PBMC and 7.38 2-LTR per 10^6 PBMC and 1.26 2-LTR per 10^6 PBMC and <1.20 2-LTR per 10^6 PBMC (4×) and 1.61 2-LTR per 10^6 PBMC and 9.55 2-LTR per 10^6 PBMC and 39.64 2-LTR per 10^6 PBMC and 30.11 2-LTR per 10^6 PBMC
2-LTR quantification, Week Post-Intensification 24 ([2]; week 24 of raltegravir intensification, individual patients, one table row per patient, censoring limit 1.20): 2.73 2-LTR per 10^6 PBMC and 2.20 2-LTR per 10^6 PBMC and <1.20 2-LTR per 10^6 PBMC (8×) and 1.88 2-LTR per 10^6 PBMC and 1.29 2-LTR per 10^6 PBMC
2-LTR quantification, Week Post-Intensification 48 ([2]; week 48 of raltegravir intensification, individual patients, one table row per patient, censoring limit 1.20): <1.20 2-LTR per 10^6 PBMC (9×) and 7.04 2-LTR per 10^6 PBMC
plasma viral load [3]: remained below the standard limit of detection
